Data reported in ChEMBL document CHEMBL1151840, “Synthetic oligoribonucleotides containing arabinonucleotides act as agonists of TLR7 and 8” (Bioorg Med Chem Lett, 2009).
The source made the active and inactive calls. The calls are words filed in the database; no cut-off is given here.

Assays:
[1] = molecular target: T1, Toll-like receptor 8 (Homo sapiens) (UniProt Q9NR97); assay: Agonist activity at human TLR8 expressed in HEK293XL cells assessed as NF-kappaB activation after 18 hrs; type: functional, cell-based
T1 sequence (whole entry): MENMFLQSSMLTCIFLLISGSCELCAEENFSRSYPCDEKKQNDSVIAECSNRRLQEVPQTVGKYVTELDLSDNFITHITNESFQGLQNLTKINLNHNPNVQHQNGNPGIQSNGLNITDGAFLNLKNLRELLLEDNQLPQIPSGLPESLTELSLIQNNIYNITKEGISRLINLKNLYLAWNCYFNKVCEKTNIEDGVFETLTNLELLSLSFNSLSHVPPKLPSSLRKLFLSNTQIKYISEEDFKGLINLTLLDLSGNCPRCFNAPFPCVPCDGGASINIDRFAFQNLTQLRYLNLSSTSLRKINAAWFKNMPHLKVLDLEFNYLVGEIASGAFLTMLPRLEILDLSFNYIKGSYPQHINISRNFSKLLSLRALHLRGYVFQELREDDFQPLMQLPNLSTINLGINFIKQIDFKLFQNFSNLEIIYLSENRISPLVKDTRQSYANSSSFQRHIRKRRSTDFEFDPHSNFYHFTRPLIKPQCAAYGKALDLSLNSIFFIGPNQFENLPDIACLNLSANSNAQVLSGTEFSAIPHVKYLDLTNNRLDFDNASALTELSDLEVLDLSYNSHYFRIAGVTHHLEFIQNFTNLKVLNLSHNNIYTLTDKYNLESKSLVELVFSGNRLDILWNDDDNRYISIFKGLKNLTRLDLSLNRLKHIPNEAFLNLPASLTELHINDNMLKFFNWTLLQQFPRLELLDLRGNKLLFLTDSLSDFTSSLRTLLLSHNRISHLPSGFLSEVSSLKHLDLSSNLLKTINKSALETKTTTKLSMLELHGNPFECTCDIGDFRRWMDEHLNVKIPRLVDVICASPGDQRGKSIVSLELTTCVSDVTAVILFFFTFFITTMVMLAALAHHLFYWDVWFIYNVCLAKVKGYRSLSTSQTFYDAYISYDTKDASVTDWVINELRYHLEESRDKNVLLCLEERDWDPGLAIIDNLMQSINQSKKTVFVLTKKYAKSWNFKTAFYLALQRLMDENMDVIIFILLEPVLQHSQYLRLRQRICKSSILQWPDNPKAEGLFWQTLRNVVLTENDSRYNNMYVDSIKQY

[2] = molecular target: T2, Toll-like receptor 7 (Homo sapiens) (UniProt Q9NYK1); assay: Agonist activity at human TLR7 expressed in HEK293XL cells assessed as NF-kappaB activation at 300 ug/ml after 18 hrs; type: functional, cell-based
T2 sequence (whole entry): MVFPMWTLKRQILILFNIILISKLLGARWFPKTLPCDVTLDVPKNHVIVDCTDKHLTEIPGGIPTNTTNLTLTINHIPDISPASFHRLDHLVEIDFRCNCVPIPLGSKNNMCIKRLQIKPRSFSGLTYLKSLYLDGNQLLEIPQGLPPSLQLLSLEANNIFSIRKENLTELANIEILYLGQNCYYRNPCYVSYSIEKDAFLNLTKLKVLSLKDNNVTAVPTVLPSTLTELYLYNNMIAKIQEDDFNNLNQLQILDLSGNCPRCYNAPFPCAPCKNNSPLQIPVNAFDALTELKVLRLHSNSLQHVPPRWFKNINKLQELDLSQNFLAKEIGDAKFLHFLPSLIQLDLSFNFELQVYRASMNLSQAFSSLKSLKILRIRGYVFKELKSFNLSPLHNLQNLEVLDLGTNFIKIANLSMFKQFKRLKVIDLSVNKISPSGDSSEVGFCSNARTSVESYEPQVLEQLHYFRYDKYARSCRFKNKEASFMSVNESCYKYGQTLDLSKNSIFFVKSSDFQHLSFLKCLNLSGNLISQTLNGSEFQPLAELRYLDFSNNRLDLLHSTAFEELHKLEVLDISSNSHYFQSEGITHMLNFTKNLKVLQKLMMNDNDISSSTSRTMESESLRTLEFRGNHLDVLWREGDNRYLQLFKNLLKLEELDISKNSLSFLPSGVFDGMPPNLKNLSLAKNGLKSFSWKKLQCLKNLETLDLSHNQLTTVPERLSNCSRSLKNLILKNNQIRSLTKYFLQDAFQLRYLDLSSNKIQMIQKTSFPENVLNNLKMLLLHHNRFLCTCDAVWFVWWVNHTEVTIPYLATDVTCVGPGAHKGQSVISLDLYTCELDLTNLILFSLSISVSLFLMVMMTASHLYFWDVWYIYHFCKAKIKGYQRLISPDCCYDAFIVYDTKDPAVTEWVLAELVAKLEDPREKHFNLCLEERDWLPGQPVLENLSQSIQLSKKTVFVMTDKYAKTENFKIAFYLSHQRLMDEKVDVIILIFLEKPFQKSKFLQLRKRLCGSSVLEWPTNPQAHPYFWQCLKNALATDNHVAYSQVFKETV

PBMC [3] = assay: Stimulation of immune response in human PBMC assessed as induction of IL1-beta production at 150 ug/ml after 24 hrs; type: functional, cell-based
PBMC [4] = assay: Stimulation of immune response in human PBMC assessed as induction of IL2R level at 150 ug/ml after 24 hrs; type: functional, cell-based
PBMC [5] = assay: Stimulation of immune response in human PBMC assessed as induction of IL8 production at 150 ug/ml after 24 hrs; type: functional, cell-based
PBMC [6] = assay: Stimulation of immune response in human PBMC assessed as induction of IL10 production at 150 ug/ml after 24 hrs; type: functional, cell-based
PBMC [7] = assay: Stimulation of immune response in human PBMC assessed as induction of IL12 production at 150 ug/ml after 24 hrs; type: functional, cell-based
PBMC [8] = assay: Stimulation of immune response in human PBMC assessed as induction of IFNalpha production at 150 ug/ml after 24 hrs; type: functional, cell-based
PBMC [9] = assay: Stimulation of immune response in human PBMC assessed as induction of IFN-gamma production at 150 ug/ml after 24 hrs; type: functional, cell-based
PBMC [10] = assay: Stimulation of immune response in human PBMC assessed as induction of MCP1 production at 150 ug/ml after 24 hrs; type: functional, cell-based
PBMC [11] = assay: Stimulation of immune response in human PBMC assessed as induction of RANTES production at 150 ug/ml after 24 hrs; type: functional, cell-based
PBMC [12] = assay: Stimulation of immune response in human PBMC assessed as induction of MIP1alpha production at 150 ug/ml after 24 hrs; type: functional, cell-based
PBMC [13] = assay: Stimulation of immune response in human PBMC assessed as induction of MIP1beta production at 150 ug/ml after 24 hrs; type: functional, cell-based
PBMC [14] = assay: Stimulation of immune response in human PBMC assessed as induction of TNFalpha production at 150 ug/ml after 24 hrs; type: functional, cell-based
Homo sapiens [15] = species on record: Homo sapiens; assay: Stimulation of immune response in human pDC assessed as induction of IFN-gamma production at 150 ug/ml after 24 hrs; type: functional
Homo sapiens [16] = species on record: Homo sapiens; assay: Stimulation of immune response in human pDC assessed as induction of IFNalpha production at 150 ug/ml after 24 hrs; type: functional
Homo sapiens [17] = species on record: Homo sapiens; assay: Stimulation of immune response in human pDC assessed as induction of IL12 production at 150 ug/ml after 24 hrs; type: functional
Homo sapiens [18] = species on record: Homo sapiens; assay: Stimulation of immune response in human pDC assessed as induction of TNFalpha production at 150 ug/ml after 24 hrs; type: functional
Homo sapiens [19] = species on record: Homo sapiens; assay: Stimulation of immune response in human pDC assessed as induction of MIP1alpha production at 150 ug/ml after 24 hrs; type: functional
Homo sapiens [20] = species on record: Homo sapiens; assay: Stimulation of immune response in human pDC assessed as induction of MIP1beta production at 150 ug/ml after 24 hrs; type: functional
Mus musculus = assay: Stimulation of immune response in C57BL/6 mouse assessed as induction of serum IL12 production at 50 mg/kg, sc after 2 hrs by luminex multiplex assay; type: functional, organism-based; set-up: dose 50 mg/kg

- Activity [1]: Dose-dependent effect
- Activity [2]: inactive
Compound: Nc1ccn([C@@H]2O[C@H](COP(=O)(S)O[C@H]3[C@@H](O)[C@H](n4cnc5c(N)ncnc54)O[C@@H]3COP(=O)(S)O[C@H]3[C@@H](O)[C@H](n4cnc5c(=O)[nH]c(N)nc54)O[C@@H]3COP(=O)(S)O[C@H]3[C@@H](O)[C@H](n4ccc(=O)[nH]c4=O)O[C@@H]3COP(=O)(S)O[C@H]3[C@@H](O)[C@H](n4cnc5c(=O)[nH]c(N)nc54)O[C@@H]3COP(=O)(S)O[C@H]3[C@@H](O)[C@H](n4ccc(=O)[nH]c4=O)O[C@@H]3COP(=O)(S)O[C@H]3[C@@H](O)[C@H](n4cnc5c(=O)[nH]c(N)nc54)O[C@@H]3COP(=O)(S)O[C@H]3[C@@H](O)[C@H](n4ccc(=O)[nH]c4=O)O[C@@H]3COP(=O)(S)O[C@H]3[C@@H](O)[C@H](n4ccc(=O)[nH]c4=O)O[C@@H]3COP(=O)(S)O[C@H]3[C@@H](O)[C@H](n4cnc5c(=O)[nH]c(N)nc54)O[C@@H]3COP(=O)(S)O[C@H]3[C@@H](O)[C@H](n4ccc(=O)[nH]c4=O)O[C@H]3CO)[C@@H](OP(=O)(S)OCC(O)COP(=O)(S)O[C@H]3[C@@H](O)[C@H](n4ccc(N)nc4=O)O[C@@H]3COP(=O)(S)O[C@H]3[C@@H](O)[C@H](n4cnc5c(N)ncnc54)O[C@@H]3COP(=O)(S)O[C@H]3[C@@H](O)[C@H](n4cnc5c(=O)[nH]c(N)nc54)O[C@@H]3COP(=O)(S)O[C@H]3[C@@H](O)[C@H](n4ccc(=O)[nH]c4=O)O[C@@H]3COP(=O)(S)O[C@H]3[C@@H](O)[C@H](n4cnc5c(=O)[nH]c(N)nc54)O[C@@H]3COP(=O)(S)O[C@H]3[C@@H](O)[C@H](n4ccc(=O)[nH]c4=O)O[C@@H]3COP(=O)(S)O[C@H]3[C@@H](O)[C@H](n4cnc5c(=O)[nH]c(N)nc54)O[C@@H]3COP(=O)(S)O[C@H]3[C@@H](O)[C@H](n4ccc(=O)[nH]c4=O)O[C@@H]3COP(=O)(S)O[C@H]3[C@@H](O)[C@H](n4ccc(=O)[nH]c4=O)O[C@@H]3COP(=O)(S)O[C@H]3[C@@H](O)[C@H](n4cnc5c(=O)[nH]c(N)nc54)O[C@@H]3COP(=O)(S)O[C@H]3[C@@H](O)[C@H](n4ccc(=O)[nH]c4=O)O[C@@H]3CO)[C@H]2O)c(=O)n1 (stereo in doubt; 6)
- Activity (PBMC [3]): Active
- Activity (PBMC [4]): Active
- Activity (PBMC [5]): Active
- Activity (PBMC [6]): Active
- Activity (PBMC [7]): Active
- Activity (PBMC [8]): Active
- Activity (PBMC [9]): Active
- Activity (PBMC [10]): Active
- Activity (PBMC [11]): Active
- Activity (PBMC [12]): Active
- Activity (PBMC [13]): Active
- Activity (PBMC [14]): Active
- Activity (Homo sapiens [15]): Active
- Activity (Homo sapiens [16]): inactive
- Activity (Homo sapiens [17]): Active
- Activity (Homo sapiens [18]): Active
- Activity (Homo sapiens [19]): Active
- Activity (Homo sapiens [20]): Active
- Activity (Mus musculus): inactive
